Converted amounts (≈) assume the structure as drawn.
Experiments:
Assay type in all cases: cell-based
[1] = system: Acinetobacter baumannii ATCC 19606; assay: MIC, CLSI broth microdilution; conditions: ATCC19606
In short: (§1)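 Broth microdilution following CLSI guidance was used to obtain MICs. Bacteria, recovered through two passages from skim-milk stocks held at −80 °C, were exposed to doubling dilutions of compound (final 16-0.0125 μg/mL).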

[2] = system: Enterobacter cloacae species complex NDM-1; assay: MIC, CLSI broth microdilution
In short: as §1

[3] = system: Escherichia coli CTX-M-15; assay: MIC, CLSI broth microdilution; conditions: CTXM15
In short: as §1

[4] = system: Klebsiella aerogenes VIM-1, SHV-12; assay: MIC, CLSI broth microdilution
In short: as §1

[5] = system: Klebsiella oxytoca KPC-2, TEM-1; assay: MIC, CLSI broth microdilution; conditions: KPC-2, TEM-1, read-out: MIC
In short: as §1

[6] = system: Klebsiella pneumoniae KPC-2; assay: MIC, CLSI broth microdilution; conditions: KPC2
In short: as §1

[7] = system: Klebsiella pneumoniae KPC-3; assay: MIC, CLSI broth microdilution; conditions: KPC3, KPC-3, read-out: MIC
In short: as §1

[8] = system: Klebsiella pneumoniae OXA-163, OXA-1_OXA-30, SHV-1, TEM-1; assay: MIC, CLSI broth microdilution
In short: (§2)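 MIC values come from CLSI broth microdilution against clinical and ATCC isolates whose resistance genes had been characterized. Compound dilutions were two-fold, with final concentrations between 16 and 0.0125 μg/mL.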

[9] = system: Klebsiella pneumoniae OXA-48, SHV-1; assay: MIC, CLSI broth microdilution
In short: as §2

[10] = system: Pseudomonas aeruginosa OprD negative; assay: MIC, CLSI broth microdilution
In short: as §2

[11] = system: Citrobacter freundii species complex Elevated AmpC; assay: MIC against Elevated AmpC producing strains, compound alone; conditions: row r16
Protocol: (§3) Gram-negative and Gram-positive bacterial strains used during the in vitro minimum inhibitory concentration (MIC) determination were obtained either from the American Type Culture Collection (ATCC) or from clinical specimens. All strains were characterized genotypically and the respective antibiotic resistance markers for each strain were identified.
(§4) Isolates were sub-cultured onto appropriate media and stocked in skim milk at −80° C. Following two subcultures from frozen stock, in vitro antimicrobial susceptibility testing was performed using the Clinical and Laboratory Standards Institute (CLSI) broth microdilution method. Briefly, fresh cultures were suspended in culture media to give a final stock inoculum size of 5×10^7 colony forming units per milliliter of broth (CFU/mL). Test compounds were prepared at a stock solution concentration equal to 128 μg/mL, then diluted to give a final an initial working concentration of 32 μg/mL. 100 μL of the stock solutions were added to the first wells in a 96-well plate and were then diluted using a 2-fold dilution method to give a range of 32-0.025 μg/mL. 100 μL of the bacterial suspensions were then added to the 96-well plates to give a final working inoculum size of 5×10^5 CFU/mL. The final compound concentration range was 16-0.0125 μg/mL. […] MICs for comparator agents were determined using custom-designed, in-house prepared 96-well broth microdilution panels.

[12] = system: Enterobacter cloacae species complex Elevated AmpC; assay: as above
Protocol: as §3, §4

[13] = system: Escherichia coli Elevated AmpC; assay: as above
Protocol: as §3, §4

Escherichia coli CMY-DHA [14] = assay: MIC against CMY-DHA producing strains, compound alone
Protocol: as §3, §4

[15] = system: Klebsiella pneumoniae CMY-DHA; assay: as above; conditions: row r32
Protocol: as §3, §4

[16] = system: Proteus mirabilis CMY-DHA; assay: as above; conditions: row r36
Protocol: as §3, §4

[17] = system: Citrobacter freundii species complex Elevated AmpC; assay: Synergistic activity: MIC in the presence of Avibactam; conditions: row r16, in the presence of Avibactam @ 4 μg/mL
Protocol: as §4
(§5) The same method used to test the activity of the claimed compounds was used to determine their synergistic activity when combined with a β-lactamase inhibitor except that either a fixed concentration or fixed ratio of a β-lactamase inhibitor was added to the 96-well plates prior to adding the bacteria cultures. Synergistic activity was defined as the reduction of MIC of a given compound when tested using the β-lactamase inhibitor versus testing the compound in the absence of a β-lactamase inhibitor.

[18] = system: Enterobacter cloacae species complex Elevated AmpC; assay: as above
Protocol: as §4, §5

Escherichia coli CMY-DHA [19] = assay: as above
Protocol: as §4, §5

[20] = system: Escherichia coli Elevated AmpC; assay: as above
Protocol: as §4, §5

[21] = system: Klebsiella pneumoniae CMY-DHA; assay: as above; conditions: row r32, in the presence of Avibactam @ 4 μg/mL
Protocol: as §4, §5

[22] = system: Proteus mirabilis CMY-DHA; assay: as above; conditions: row r36, in the presence of Avibactam @ 4 μg/mL
Protocol: as §4, §5

Nc1nc(/C(=N/OC2(C(=O)O)CCC(F)(F)CC2)C(=O)N[C@H]2CON(C3(C(=O)O)C[C@H](N4C(=O)c5cc(O)c(O)cc5C4=O)C(=O)O3)C2=O)cs1 (stereo partly drawn) [Cmpd 10, (4S)-2-[(4S)-4-{[(2Z)-2-(2-amino-1,3-thiazol-4-yl)-2-{[(1-carboxy-4,4-difluorocyclohexyl)oxy]imino}acetyl]amino}-3-oxo-1,2-oxazolidin-2-yl]-4-(5,6-dihydroxy-1,3-dioxo-1,3-dihydro-2H-isoindol-2-yl)-5-oxooxolane-2-carboxylic acid]
MIC [1]: 0.12 µg/mL (≈ 0.162 µM)
MIC [2]: 2 µg/mL (≈ 2.71 µM)
MIC [3]: 1 µg/mL (≈ 1.35 µM)
MIC [4]: 0.12 µg/mL (≈ 0.162 µM)
MIC [5]: ≤ 0.015 µg/mL
MIC [6]: 0.03 µg/mL (≈ 0.0406 µM)
MIC [7]: 0.06 µg/mL (≈ 0.0812 µM)
MIC [8]: 0.06 µg/mL (≈ 0.0812 µM)
MIC [9]: ≤ 0.015 µg/mL
MIC [10]: 0.25 µg/mL (≈ 0.338 µM)
MIC [11]: 0.25 µg/mL (≈ 0.338 µM)
MIC [12]: 0.5 µg/mL (≈ 0.677 µM)
MIC ([12]; strain of row r7): 4 µg/mL (≈ 5.42 µM)
MIC ([12]; strain of row r20): 0.12 µg/mL (≈ 0.162 µM)
MIC ([13]; strain of row r10): 0.015 µg/mL (≈ 0.0203 µM)
MIC ([13]; strain of row r11): 0.12 µg/mL (≈ 0.162 µM)
MIC ([13]; strain of row r12): 0.12 µg/mL (≈ 0.162 µM)
MIC ([13]; strain of row r13): 0.03 µg/mL (≈ 0.0406 µM)
MIC ([13]; strain of row r14): 0.03 µg/mL (≈ 0.0406 µM)
MIC ([13]; strain of row r15): 0.25 µg/mL (≈ 0.338 µM)
MIC (Escherichia coli CMY-DHA [14]; strain of row r26): 0.5 µg/mL (≈ 0.677 µM)
MIC (Escherichia coli CMY-DHA [14]; strain of row r27): 0.03 µg/mL (≈ 0.0406 µM)
MIC (Escherichia coli CMY-DHA [14]; strain of row r28): 0.25 µg/mL (≈ 0.338 µM)
MIC (Escherichia coli CMY-DHA [14]; strain of row r29): 0.5 µg/mL (≈ 0.677 µM)
MIC (Escherichia coli CMY-DHA [14]; strain of row r30): 0.25 µg/mL (≈ 0.338 µM)
MIC (Escherichia coli CMY-DHA [14]; strain of row r31): 1 µg/mL (≈ 1.35 µM)
MIC (Escherichia coli CMY-DHA [14]; strain of row r34): 0.06 µg/mL (≈ 0.0812 µM)
MIC (Escherichia coli CMY-DHA [14]; strain of row r35): 0.12 µg/mL (≈ 0.162 µM)
MIC [15]: 0.5 µg/mL (≈ 0.677 µM)
MIC [16]: 0.12 µg/mL (≈ 0.162 µM)
MIC [17]: 0.03 µg/mL
MIC ([18]; in the presence of Avibactam @ 4 μg/mL): 0.06 µg/mL
MIC ([18]; strain of row r7, in the presence of Avibactam @ 4 μg/mL): 0.12 µg/mL
MIC ([18]; strain of row r20, in the presence of Avibactam @ 4 μg/mL): <=0.008 μg/mL
MIC (Escherichia coli CMY-DHA [19]; strain of row r26, in the presence of Avibactam @ 4 μg/mL): 0.06 µg/mL
MIC (Escherichia coli CMY-DHA [19]; strain of row r27, in the presence of Avibactam @ 4 μg/mL): <=0.008 μg/mL
MIC (Escherichia coli CMY-DHA [19]; strain of row r28, in the presence of Avibactam @ 4 μg/mL): 0.03 µg/mL
MIC (Escherichia coli CMY-DHA [19]; strain of row r29, in the presence of Avibactam @ 4 μg/mL): 0.06 µg/mL
MIC (Escherichia coli CMY-DHA [19]; strain of row r30, in the presence of Avibactam @ 4 μg/mL): <=0.008 μg/mL
MIC (Escherichia coli CMY-DHA [19]; strain of row r31, in the presence of Avibactam @ 4 μg/mL): 0.06 µg/mL
MIC (Escherichia coli CMY-DHA [19]; strain of row r34, in the presence of Avibactam @ 4 μg/mL): 0.015 µg/mL
MIC (Escherichia coli CMY-DHA [19]; strain of row r35, in the presence of Avibactam @ 4 μg/mL): 0.015 µg/mL
MIC ([20]; strain of row r10, in the presence of Avibactam @ 4 μg/mL): <=0.008 μg/mL
MIC ([20]; strain of row r11, in the presence of Avibactam @ 4 μg/mL): 0.03 µg/mL
MIC ([20]; strain of row r12, in the presence of Avibactam @ 4 μg/mL): 0.03 µg/mL
MIC ([20]; strain of row r13, in the presence of Avibactam @ 4 μg/mL): <=0.008 μg/mL
MIC ([20]; strain of row r14, in the presence of Avibactam @ 4 μg/mL): <=0.008 μg/mL
MIC ([20]; strain of row r15, in the presence of Avibactam @ 4 μg/mL): 0.06 µg/mL
MIC [21]: 0.25 µg/mL
MIC [22]: 0.5 µg/mL

From patent US11780832B2, “Lactivicin compounds, their preparation and use as antibacterial agents” (priority 2021, dated 2023)
